Results: ChEMBL document CHEMBL1122374 (J Med Chem, 1983)
pKi: −log10 of the molar value.

How the values were obtained:
Adenosine deaminase [1] = molecular target: T1, Adenosine deaminase (Bos taurus, UniProt P56658); assay: In vitro inhibition of adenosine deaminase in calf intestinal mucosa; type: tissue-based
T1 sequence (P56658 whole entry): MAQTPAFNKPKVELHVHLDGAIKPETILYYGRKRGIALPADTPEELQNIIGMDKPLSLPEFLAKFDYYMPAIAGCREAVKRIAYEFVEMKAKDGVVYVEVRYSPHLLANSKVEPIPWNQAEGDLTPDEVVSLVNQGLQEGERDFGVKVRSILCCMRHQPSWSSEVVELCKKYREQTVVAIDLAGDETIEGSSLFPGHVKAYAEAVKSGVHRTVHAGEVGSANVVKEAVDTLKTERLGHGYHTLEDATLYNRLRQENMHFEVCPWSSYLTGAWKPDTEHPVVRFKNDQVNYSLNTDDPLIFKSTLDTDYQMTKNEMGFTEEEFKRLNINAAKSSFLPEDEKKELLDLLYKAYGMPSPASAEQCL

Adenosine deaminase [2] = molecular target: T2, Adenosine deaminase (Homo sapiens, UniProt P00813); assay: The compound was tested in vitro for inhibition of human erythrocytic adenosine deaminase
T2 sequence (P00813 whole entry): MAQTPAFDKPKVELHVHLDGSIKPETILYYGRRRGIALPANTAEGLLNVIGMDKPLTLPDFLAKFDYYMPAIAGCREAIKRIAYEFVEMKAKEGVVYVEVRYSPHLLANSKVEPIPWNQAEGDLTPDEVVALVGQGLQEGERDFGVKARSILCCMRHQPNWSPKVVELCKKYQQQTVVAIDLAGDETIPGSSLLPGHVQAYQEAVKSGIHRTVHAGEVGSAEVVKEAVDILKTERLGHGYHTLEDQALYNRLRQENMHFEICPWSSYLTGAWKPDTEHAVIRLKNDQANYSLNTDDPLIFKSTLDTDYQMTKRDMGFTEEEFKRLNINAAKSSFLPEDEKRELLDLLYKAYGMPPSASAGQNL

SMILES	pKi (Adenosine deaminase [1])	pKi (Adenosine deaminase [2])
CC1=NC[C@@H](O)c2ncn([C@H]3C[C@H](O)[C@@H](CO)O3)c2N1	7.80	
OCCOCn1cnc2c1NC=NCC2O (stereo not drawn)	7.01	
OC[C@H]1O[C@@H](n2cnc3c2N=CNC[C@H]3O)[C@H](O)[C@@H]1O [COFORMYCIN]		11.00
